In PubChem BioAssay (NCI):
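48-hour exposure; five concentrations; linearly interpolated endpoints. TGI: total growth inhibition.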

Columns and labels:
Assay in all cases: NCI tumour cell line growth inhibition, 48 h
LOX IMVI melanoma = test system: LOX IMVI melanoma
CCRF-CEM leukemia = test system: CCRF-CEM leukemia
RXF 393 renal = test system: RXF 393 renal
MDA-N = test system: MDA-N
BT-549 breast = test system: BT-549 breast
SN12C renal = test system: SN12C renal
CAKI-1 renal = test system: CAKI-1 renal
SNB-19 CNS = test system: SNB-19 CNS
NCI-H522 lung = test system: NCI-H522 lung
SNB-75 CNS = test system: SNB-75 CNS
HOP-92 NSCLC = test system: HOP-92 NSCLC
A498 renal = test system: A498 renal
HCC-2998 colon = test system: HCC-2998 colon
HOP-62 NSCLC = test system: HOP-62 NSCLC
SK-OV-3 ovarian = test system: SK-OV-3 ovarian

SMILES	TGI (LOX IMVI melanoma) [µM]	TGI (CCRF-CEM leukemia) [µM]	TGI (RXF 393 renal) [µM]	TGI (MDA-N) [µM]	TGI (BT-549 breast) [µM]	TGI (SN12C renal) [µM]	TGI (CAKI-1 renal) [µM]	TGI (SNB-19 CNS) [µM]	TGI (NCI-H522 lung) [µM]	TGI (SNB-75 CNS) [µM]	TGI (HOP-92 NSCLC) [µM]	TGI (A498 renal) [µM]	TGI (HCC-2998 colon) [µM]	TGI (HOP-62 NSCLC) [µM]	TGI (SK-OV-3 ovarian) [µM]
NS(=O)(=O)c1ccc(NC(=S)NC(=O)Nc2ccc(Cl)c(Cl)c2)cc1	19.1	70.7	35.4	29.6	31.7	31	40.1	24.5	37.3	28.8	48.6	7.51	30.9	36.8	38.9
Cc1cn2cc(-c3cccs3)nc2s1	> 100	> 100	> 100	> 100	> 100	> 100	> 100	> 100	> 100	> 100	> 100	> 100	> 100	> 100	> 100
C#CCOC(=O)C(N)CC(N)=O (stereo not given)	> 100	> 100	> 100	> 100	> 100	> 100	> 100	> 100	> 100	> 100	> 100	> 100	> 100	> 100	> 100
COC1=C(C(c2cc(OC)c(OC)c(OC)c2)c2cc3c(cc2OC)OCO3)C(=O)OC1 (stereo not given)	> 100	> 68.8	43.6	17.1	> 100	> 100	> 100	> 95.6	> 100	> 64.3	> 100	> 71.9	> 100	> 84	> 78.6
N#Cc1cc2c(cc1C#N)SCCSCCCSCCS2	22.7	> 75	18.1	> 100	31.2	> 100	> 57.8	22.9	> 85.7	18.2	7.05	> 92.1	> 100	4.95	45.4
O=c1[nH]c(=S)[nH]cc1CN1CCOCC1	> 100	> 100	> 100	> 100	> 100	> 100	> 100	> 100	> 100	> 100	> 100	> 100	> 100	> 100	> 100
COc1ccc2c(c1)/C(=C/c1c(O)[nH]c(=S)[nH]c1=O)C=N2	> 100	> 100	96.9	> 100	> 100	> 100	> 100	> 100	> 100	49.9	> 100	> 100	> 100	> 100	> 100
COc1cc2nc3n(c2cc1OC)C(O)c1c(Cl)nc(SC)nc1S3 (stereo not given)	5.07	3.91	14.8	24	9.37	21	> 45.4	> 37.7	4.36	> 68	68.3	34.9	20.2	26.1	30.8
